The values that follow are results of earlier work, collected in patent US11059901B2, “Compositions and methods related to xCT antibodies” (AGIL VAX, INC., priority 2017, dated 2021).

The target in one data set is T1, xCT (Homo sapiens, UniProt Q9UPY5).
T1 sequence (Q9UPY5 1-501): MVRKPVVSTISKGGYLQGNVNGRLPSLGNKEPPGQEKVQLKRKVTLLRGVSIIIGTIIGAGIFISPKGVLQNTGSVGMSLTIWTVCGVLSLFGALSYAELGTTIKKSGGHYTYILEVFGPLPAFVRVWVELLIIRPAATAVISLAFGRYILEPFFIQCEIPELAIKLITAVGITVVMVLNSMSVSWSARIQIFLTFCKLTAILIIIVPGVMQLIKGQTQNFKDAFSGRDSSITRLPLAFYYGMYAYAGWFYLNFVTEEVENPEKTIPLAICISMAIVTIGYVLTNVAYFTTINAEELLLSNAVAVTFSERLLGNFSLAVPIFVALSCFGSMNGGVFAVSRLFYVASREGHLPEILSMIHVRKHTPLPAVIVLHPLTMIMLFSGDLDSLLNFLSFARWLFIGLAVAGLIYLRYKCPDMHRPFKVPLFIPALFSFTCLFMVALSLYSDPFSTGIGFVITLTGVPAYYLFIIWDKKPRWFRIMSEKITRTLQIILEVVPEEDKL
T1 sequence (P08195 1-529 partner): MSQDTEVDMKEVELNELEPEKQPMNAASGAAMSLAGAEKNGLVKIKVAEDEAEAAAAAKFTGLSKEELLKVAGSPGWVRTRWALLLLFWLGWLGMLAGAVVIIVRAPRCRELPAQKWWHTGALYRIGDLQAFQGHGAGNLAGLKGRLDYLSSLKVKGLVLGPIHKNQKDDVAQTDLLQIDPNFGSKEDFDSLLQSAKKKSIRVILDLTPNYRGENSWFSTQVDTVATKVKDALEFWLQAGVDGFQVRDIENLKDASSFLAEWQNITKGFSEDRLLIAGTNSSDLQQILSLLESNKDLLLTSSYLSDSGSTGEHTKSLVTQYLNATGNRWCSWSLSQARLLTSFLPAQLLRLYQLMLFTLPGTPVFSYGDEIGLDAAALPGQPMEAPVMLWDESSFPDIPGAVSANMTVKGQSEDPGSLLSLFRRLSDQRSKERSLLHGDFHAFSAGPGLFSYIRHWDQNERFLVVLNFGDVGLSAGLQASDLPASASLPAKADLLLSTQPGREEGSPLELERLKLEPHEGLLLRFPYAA

The conditions of data set [1]: under physiological conditions.

For `O=C(O)c1cc(/N=N/c2ccc(S(=O)(=O)Nc3ccccn3)cc2)ccc1O` [SASP, sulfasalazine], at xCT (animal models of breast cancer metastasis), the metastatic foci result is reported as “significant decreases”. In addition, the “frequency of CSC” value on xCT (in vivo) is recorded as “reductions”. In addition, in data set [1], the solubility entry is listed as “insoluble” and the stability entry is recorded as “labile”.
